Results on 36 compounds are retold here after US20250115648A1 (priority 2013, published 2025).

The conditions of data set [1]: mouse, in vivo.
Data set [2] deals with U87 flank xenografts. On the set-up: species or system mice. The conditions noted are these: mouse, in vivo.
For data set [3] the following is noted: cited from earlier work; for Peak Abs.: peak absorbance wavelength of exemplary fluorescent reporter molecule; for Peak Em.: peak emission wavelength of exemplary fluorescent reporter molecule.
Data set [4] concerns CD-1 mice. Briefly: Activity level of CD-1 mice after injection of free peptides. The settings on record: high dose (200 nmol), IV, starting 3 minutes post injection.

“And” between values parts separate entries of the source, which are not always exact repeats. Equal values may be shown once.

In the case of `CC1(C)C(/C=C/C=C/C=C/C=C2\N(CCCCS(=O)(=O)[O-])c3ccc4ccccc4c3C2(C)C)=[N+](CCCCS(=O)(=O)[O-])c2ccc3ccccc3c21.[Na+]` [ICG free dye, Cardiogreen (ICG)], in data set [1], the “Detection in fecal matter” value is “detectable in the fecal matter” and the “Detection in liver, kidney, spleen, or brain” value is listed as “not detectable”. The “Targeting / detection in tumor tissue” value in data set [2] is listed as “not detected”.
Consider `Cc1c(CC(=O)O)c(=O)oc2c(F)c(O)c(F)cc12` [Marina Blue], for which, in data set [3], the “Peak Abs.” value is reported as 365 nanometers and the “Peak Em.” value is recorded as 460 nanometers.
Consider `C[N+]1=C(/C=C/C=C/C=C2\N(Cc3ccc(CCl)cc3)c3ccccc3C2(C)C)C(C)(C)c2ccccc21.[Cl-]` [MitoTracker Deep Red FM], for which, in data set [3], the “Peak Abs.” value was 641 nanometers and the “Peak Em.” value is on record as 661 nanometers.
For `ClCc1ccc(C2=c3cc4c5c(c3Oc3c2cc2c6c3CCCN6CCC2)CCC[N+]=5CCC4)cc1.[Cl-]` [MitoTracker Red CMXRos], in data set [3], the “Peak Abs.” value is 578 nanometers and the “Peak Em.” value is on record as 597 nanometers.
For `Nc1ccc([N+](=O)[O-])c2nonc12` [NBD Amine], in data set [3], the “Peak Abs.” value is recorded as 450 nanometers and the “Peak Em.” value was 530 nanometers.
For the compound `O=C(O)CCCCCNc1ccc([N+](=O)[O-])c2nonc12` [NBD-X], in data set [3], the “Peak Abs.” value is 467 nanometers and the “Peak Em.” value is on record as 538 nanometers.
In the case of `O=C(O)CSc1c(F)c(F)c(C(=O)O)c(-c2c3cc(F)c(=O)cc-3oc3cc(O)c(F)cc23)c1F` [Oregon Green 514], in data set [3], the “Peak Abs.” value is on record as 512 nanometers and the “Peak Em.” value is listed as 532 nanometers.
As to `COc1cc2cc(-c3ccc(C(=O)O)cc3C(=O)O)oc2cc1N1CCOCCOCCN(c2cc3oc(-c4ccc(C(=O)O)cc4C(=O)O)cc3cc2OC)CCOCCOCC1` [PBFI], in data set [3], the “Peak Abs.” value is given as 360 nanometers and the “Peak Em.” value is listed as 420 nanometers.
On to `CN1/C(=C/c2cc[n+](CCC[N+](C)(C)CCC[N+](C)(C)CCC[n+]3ccc(/C=C4/Oc5ccccc5N4C)cc3)cc2)Oc2ccccc21.[I-].[I-].[I-].[I-]` [POPO-1], for which, in data set [3], the “Peak Abs.” value was 434 nanometers and the “Peak Em.” value is 456 nanometers.
Take `CN1/C(=C/C=C/c2cc[n+](CCC[N+](C)(C)CCC[N+](C)(C)CCC[n+]3ccc(/C=C/C=C4/Oc5ccccc5N4C)cc3)cc2)Oc2ccccc21.[I-].[I-].[I-].[I-]` [POPO-3]: in data set [3], the “Peak Abs.” value is listed as 532 nanometers and the “Peak Em.” value was 573 nanometers.
`O=C(O)c1cc2cc(F)c(O)c(F)c2oc1=O` [Pacific Blue]: in data set [3], the “Peak Abs.” value is 405 nanometers and 410 nanometers; the “Peak Em.” value is recorded as 455 nanometers.
Take `O=S(=O)([O-])c1cc(Nc2nc(Nc3ccccc3)nc(N(CCO)CCO)n2)ccc1/C=C/c1ccc(Nc2nc(Nc3ccccc3)nc(N(CCO)CCO)n2)cc1S(=O)(=O)[O-].[Na+].[Na+]` [Phorwite AR]: in data set [3], the “Peak Abs.” value is listed as 360 nanometers and the “Peak Em.” value is on record as 430 nanometers.
Consider `CCN(CC)c1ccc(/C=C/C=C/c2cc[n+](CC(O)C[N+](C)(C)CCO)cc2)cc1.[Br-].[Br-]` (centres unmarked) [RH 795], for which, in data set [3], the “Peak Abs.” value is recorded as 530 nanometers and the “Peak Em.” value is on record as 712 nanometers.
With `O=c1ccc2nc3ccc(O)c([As]4SCCS4)c3oc-2c1[As]1SCCS1` [ReAsH (TC-ReAsH)], in data set [3], the “Peak Abs.” value was 593 nanometers and the “Peak Em.” value was 608 nanometers.
`CCCN(CCCN(C)C)c1cc(/C=C2/Sc3ccccc3N2C)c2ccccc2[n+]1-c1ccccc1` [SYBR Green I]: in data set [3], the “Peak Abs.” value is 497 nanometers and the “Peak Em.” value is recorded as 521 nanometers.
Take `CN1/C(=C/c2cc[n+](CCC[N+](C)(C)CCC[N+](C)(C)CCC[n+]3ccc(/C=C4\Sc5ccccc5N4C)c4ccccc43)c3ccccc23)Sc2ccccc21.[I-].[I-].[I-].[I-]` [TOTO-1]: in data set [3], the “Peak Abs.” value is given as 513 nanometers and the “Peak Em.” value is on record as 531 nanometers.
Turning to `Cl.Cl.N=C(N)c1ccc2oc(/C=C/c3cc4cc(C(=N)N)ccc4o3)cc2c1` [True Blue], in data set [3], the “Peak Abs.” value is on record as 365 nanometers and the “Peak Em.” value was 425 nanometers.
On to `CCN(CC)c1ccc2c(-c3ccc(S(=O)(=O)NCCCCCC(=O)O)cc3S(=O)(=O)[O-])c3ccc(=[N+](CC)CC)cc-3oc2c1` [rhodamine Red-X], for which, in data set [3], the “Peak Abs.” value is reported as 572 nanometers and the “Peak Em.” value is listed as 591 nanometers.
As for Allophycocyanin [APC (Allophycocyanin)], in data set [3], the “Peak Abs.” value is reported as 651 nanometers and the “Peak Em.” value is reported as 660 nanometers.
Regarding “CFP: Exemplary fluorescent reporter molecules”, the “Peak Abs.” value in data set [3] is recorded as 434 nanometers.
For Carboxynaphthofluorescein, in data set [3], the “Peak Abs.” value is 600 nanometers and the “Peak Em.” value is 674 nanometers.
Consider Cascade Blue, for which, in data set [3], the “Peak Abs.” value is 400 nanometers and 377 nanometers; the “Peak Em.” value was 420 nanometers.
For the compound Chlorotoxin [KNT-01], the “Activity level after free peptide injection” value in data set [4] is “decrease in activity level, somnolence, and prostration”.
Take Cy5.5: in data set [3], the “Peak Abs.” value is 672 nanometers and 678 nanometers; the “Peak Em.” value was 690 nanometers and 696 nanometers.
On to Fast Blue, for which, in data set [3], the “Peak Abs.” value is recorded as 360 nanometers and the “Peak Em.” value is recorded as 440 nanometers.
Fluo-4: in data set [3], the “Peak Abs.” value is on record as 494 nanometers and the “Peak Em.” value is 540 nanometers.
Regarding Methoxycoumarin, in data set [3], the “Peak Abs.” value was 360 nanometers and the “Peak Em.” value was 410 nanometers.
Turning to Nitrobenzoxadiazole, in data set [3], the “Peak Abs.” value is 465 nanometers and the “Peak Em.” value was 510 nanometers.
On to “Phycoerythrin [Phycoerythrin (PE, R-phycoerythrin)]”, for which, in data set [3], the “Peak Abs.” value is on record as 567 nanometers and the “Peak Em.” value is reported as 576 nanometers.
As for Rhod-2, in data set [3], the “Peak Abs.” value is given as 551 nanometers and the “Peak Em.” value is on record as 576 nanometers.
Consider SYTO 9, for which, in data set [3], the “Peak Abs.” value was 482 nanometers and the “Peak Em.” value is listed as 500 nanometers.
As for SYTO 16, in data set [3], the “Peak Abs.” value is listed as 490 nanometers and the “Peak Em.” value was 520 nanometers.
With TOTO-3, in data set [3], the “Peak Abs.” value is given as 642 nanometers and the “Peak Em.” value was 661 nanometers.
For the compound Texas Red, in data set [3], the “Peak Abs.” value is reported as 592 nanometers and the “Peak Em.” value is given as 615 nanometers.
Regarding carboxy-X-rhodamine [ROX (6-ROX)], in data set [3], the “Peak Abs.” value is reported as 568 nanometers and the “Peak Em.” value was 595 nanometers.
For the compound carboxytetramethyl-rhodamine [TAMRA], in data set [3], the “Peak Abs.” value is reported as 565 nanometers and the “Peak Em.” value was 580 nanometers.
